Test results published in patent publication US9000002B2, “N1-substituted-5-fluoro-2-oxopyrimidinone-1(2H)-carboxamide derivatives” (Dow Agrosciences LLC, priority 2009, dated 2015).
Like-named read-outs stand apart in the source and are kept apart here.

Legend:
[1] = system: Mycosphaerella graminicola; Anamorph: Septoria tritici; Bayer Code SEPTTR; experiment: Evaluation of fungicidal activity: leaf blotch of wheat (SEPTTR), wheat plants variety Yuma; type: in vivo; conditions: Zymoseptoria tritici
Experimental: Evaluation of Fungicidal Activity: Leaf Blotch of Wheat (Mycosphaerella graminicola; Anamorph: Septoria tritici; Bayer Code […]) Wheat plants (variety Yuma) were grown from seed in a greenhouse in 50% mineral soil/50% soil-less Metro mix until the first leaf was fully emerged, with 7-10 seedlings per pot. These plants were inoculated with an aqueous spore suspension of Septoria tritici either prior to or after fungicide treatments. After inoculation the plants were kept in 100% relative humidity (one day in a dark dew chamber followed by two to three days in a lighted dew chamber) to permit spores to germinate and infect the leaf. The plants were then transferred to a greenhouse for disease to develop. The following table presents the activity of typical compounds of the present disclosure when evaluated in these experiments. The effectiveness of the test compounds in controlling disease was determined by assessing the severity of disease on treated plants, then converting the severity to percent control based on the level of disease on untreated, inoculated plants. • In each case of Table II the rating scale is as follows: […]

[2] = 24 h, One-Day Protectant (1DP), 100 ppm, wheat plants, percent control vs untreated inoculated plants, read-out: SEPTTR 100 PPM 1DP (% Disease Control rating)
[3] = 72 h, Three-Day Curative (3DC), 100 ppm, wheat plants, percent control vs untreated inoculated plants, read-out: SEPTTR 100 PPM 3DC (% Disease Control rating)

## CCCNC(=O)n1cc(F)c(/N=C/N(C)C)nc1=O [Compound 1, 4-(dimethylamino-methyleneamino)-5-fluoro-2-oxo-2H-pyrimidine-1-carboxylic acid propylamide]
other
  melting point: 266 to 268 °C
[1]; [2]
  pest or weed control at 100 ppm: 76 to 100%
[1]; [3]
  pest or weed control at 100 ppm: 76 to 100%

## CCOC(=O)CCNC(=O)n1cc(F)c(/N=C/N(C)C)nc1=O [Compound 2]
other
  melting point: 232 to 236 °C
[1]; [2]
  pest or weed control at 100 ppm: 76 to 100%
[1]; [3]
  pest or weed control at 100 ppm: 76 to 100%

## CN(C)/C=N/c1nc(=O)n(C(=O)NCc2ccccc2)cc1F [Compound 3, (E)-N-benzyl-4-((dimethylamino)methyleneamino)-5-fluoro-2-oxopyrimidine-1(2H)-carboxamide]
other
  melting point: 147 to 150 °C
[1]; [2]
  pest or weed control at 100 ppm: 76 to 100%
[1]; [3]
  pest or weed control at 100 ppm: 76 to 100%

## CCCCCNC(=O)n1cc(F)c(N)nc1=O [Compound 4, 4-amino-5-fluoro-2-oxo-N-pentylpyrimidine-1(2H)-carboxamide]
other
  melting point: 289 to 292 °C
[1]; [2]
  pest or weed control at 100 ppm: 76 to 100%
[1]; [3]
  pest or weed control at 100 ppm: 76 to 100%

## Nc1nc(=O)n(C(=O)NC2CCCC2)cc1F [Compound 5, 4-amino-N-cyclopentyl-5-fluoro-2-oxopyrimidine-1(2H)-carboxamide]
other
  melting point: 294 to 297 °C
[1]; [2]
  pest or weed control at 100 ppm: 76 to 100%
[1]; [3]
  pest or weed control at 100 ppm: 76 to 100%

## Nc1nc(=O)n(C(=O)Nc2ccccc2)cc1F [Compound 6, 4-amino-5-fluoro-2-oxo-N-phenylpyrimidine-1(2H)-carboxamide]
other
  melting point: 275 to 277 °C (dec.)
[1]; 24 h, read-out: SEPTTR 100 PPM 1DP (% Disease Control rating)
  pest or weed control at 100 ppm: 76 to 100%
[1]; 72 h, read-out: SEPTTR 100 PPM 3DC (% Disease Control rating)
  pest or weed control at 100 ppm: 76 to 100%

## COc1ccccc1NC(=O)n1cc(F)c(N)nc1=O [Compound 7]
other
  melting point: 277 to 280 °C (dec.)
[1]; [2]
  pest or weed control at 100 ppm: 76 to 100%
[1]; [3]
  pest or weed control at 100 ppm: 76 to 100%

## Nc1nc(=O)n(C(=O)Nc2ccccc2Cl)cc1F [Compound 8]
other
  melting point: 258 to 261 °C
[1]; [2]
  pest or weed control at 100 ppm: 76 to 100%
[1]; [3]
  pest or weed control at 100 ppm: 76 to 100%

## Cc1ccccc1NC(=O)n1cc(F)c(N)nc1=O [Compound 9]
other
  melting point: 277 to 280 °C (dec.)
[1]; [2]
  pest or weed control at 100 ppm: 76 to 100%
[1]; [3]
  pest or weed control at 100 ppm: 76 to 100%

## COc1ccc(NC(=O)n2cc(F)c(N)nc2=O)cc1 [Compound 10]
other
  melting point: 252 to 255 °C
[1]; [2]
  pest or weed control at 100 ppm: 76 to 100%
[1]; [3]
  pest or weed control at 100 ppm: 76 to 100%

## Nc1nc(=O)n(C(=O)Nc2ccc(F)c(Cl)c2)cc1F [Compound 11]
other
  melting point: 251 to 254 °C
[1]; [2]
  pest or weed control at 100 ppm: 76 to 100%
[1]; [3]
  pest or weed control at 100 ppm: 26 to 50%

## Nc1nc(=O)n(C(=O)Nc2ccc(Cl)cc2)cc1F [Compound 12]
other
  melting point: 261 to 264 °C
[1]; [2]
  pest or weed control at 100 ppm: 76 to 100%
[1]; [3]
  pest or weed control at 100 ppm: 76 to 100%

## N#Cc1ccc(NC(=O)n2cc(F)c(N)nc2=O)cc1 [Compound 13]
other
  melting point: 254 to 257 °C
[1]; [2]
  pest or weed control at 100 ppm: 76 to 100%
[1]; [3]
  pest or weed control at 100 ppm: 51 to 75%

## Nc1nc(=O)n(C(=O)Nc2cccc(Cl)c2)cc1F [Compound 14, 4-amino-N-(3-chlorophenyl)-5-fluoro-2-oxopyrimidine-1(2H)-carboxamide]
other
  melting point: 250 to 252 °C
[1]; [2]
  pest or weed control at 100 ppm: 76 to 100%
[1]; [3]
  pest or weed control at 100 ppm: 76 to 100%

## Cc1ccc(NC(=O)n2cc(F)c(N)nc2=O)cc1 [Compound 15]
other
  melting point: 257 to 260 °C
[1]; [2]
  pest or weed control at 100 ppm: 76 to 100%
[1]; [3]
  pest or weed control at 100 ppm: 76 to 100%

## COc1cccc(NC(=O)n2cc(F)c(N)nc2=O)c1 [Compound 16]
other
  melting point: 242 to 244 °C
[1]; [2]
  pest or weed control at 100 ppm: 76 to 100%
[1]; [3]
  pest or weed control at 100 ppm: 76 to 100%

## Nc1nc(=O)n(C(=O)Nc2ccc3ccccc3c2)cc1F [Compound 17]
other
  melting point: 273 to 275 °C
[1]; [2]
  pest or weed control at 100 ppm: 76 to 100%
[1]; [3]
  pest or weed control at 100 ppm: 76 to 100%

## Cn1ccc2cc(NC(=O)n3cc(F)c(N)nc3=O)ccc21 [Compound 18]
other
  melting point: 268 to 270 °C
[1]; [2]
  pest or weed control at 100 ppm: 76 to 100%
[1]; [3]
  pest or weed control at 100 ppm: 76 to 100%
